Source: patent US20130079370A1, “Method for the Inhibition of Deubiquitinating Activity” (priority 2011, published 2013)

Key:
[1] = system: proteasome reporter cell line MelJuSo Ub-YFP (UbG76V-YFP); test: Ub-YFP proteasome reporter cell line, accumulation of reporter; assay type: cell-based; conditions: Homo sapiens, MEL-JUSO; immunoblotting and flow cytometry; read-out: IC50, dose dependent accumulation of the Ub-YFP reporter
Procedure: b-AP15 blocks cellular proteasome function, as confirmed by use of a reporter cell line, which expresses ubiquitin tagged to yellow fluorescent protein (UbG76V-YFP) constitutively targeted for proteasomal degradation (12). […] Since inhibition of proteasome function is characterized by defects in ubiquitin turnover (13) colon carcinoma HCT116 cells were treated with b-AP15 and the level of ubiqutin conjugation analyzed by immunoblotting. […] The increase in polyubiquitin is associated with a strong proteotoxic response characterized by induction of HSPA6 (Hsp70B′), HSPA1B and DNAJB1 (Hsp40).
MCF7 cells were maintained in MEM/10% fetal calf serum. HCT-116 p53+/+, p53−/−, Bcl-2+/+, PUMA−/− and BAX−/− cells were maintained in McCoy's 5A modified medium/10% fetal calf serum. The HCT-116 p53+/+, p53−/−, PUMA−/− and BAX−/− were generated as described (36). The HCT-116 Bcl-2+/+ cell line was generated by transfecting parental HCT-116 p53+/+ cells with pCEP4 Bcl-2 (Addgene plasmid 16461) (37) and isolating high expression clones. […]
b-AP15 inhibits degradation of ubiquitin-tagged YFP in a proteasome reporter cell line (FIG. 1a). Levels of ^UbG76V-YFP accumulation were determined by flow cytometry and immunoblotting; immunoblot of ubiquitin conjugation in HCT-116 cells treated with b-AP15 (1 μM) or bortezomib (100 nM) (FIG. 1b). […]

[2] = system: Lewis Lung Carcinoma (LLC) tumors; test: Syngenic lung carcinoma (LLC) model; assay type: in vivo, C57BL/6J mice; conditions: 5 mg/kg i.p.
MCF7 cells = test: Microarray based gene expression analysis, chaperone genes; assay type: cell-based; parameters: key to Expression value HSPA4L / Expression value DNAJB1 / Expression value HSPD1 / Expression value DNAJB4 / Expression value HSPA1B / Expression value HSPH1 / Expression value HSPA4 / Expression value DNAJB9 / Expression value DNAJA1 / Expression value HSPA1A / Expression value HSPA6 / Expression value DNAJA4: MAS5-normalized array expression, arbitrary units
Procedure: The microarray based gene expression analysis and the Connectivity Map (CMAP) analysis was performed as previously described (40). Briefly, MCF7 cells were exposed to b-AP15 (1 μM, 6 h) or vehicle (0.1% DMSO, 6 h). RNA was isolated (RNeasy miniprep kit, Qiagen) followed by quality control, labelling and hybridization to Genome U133 Plus 2.0 arrays (Affymetrix Inc). Raw data was normalized using MasS (Affymetrix Inc.) and rank ordered. For selection of the 30 most induced (up tags) and the 30 most suppressed (down tags) transcripts the following criteria were used: Up tags, present call and expression over 300 arbitrary in the b-AP15 experiment; Down tags, present call after both b-AP15 and vehicle treatment, and expression over 300 arbitrary units in the vehicle experiment. For CMAP compatibility only tags (i.e. probes) present on HG U133A were used. Raw and normalized expression data have been deposited at Gene Expression Omnibus (http://www.ncbi.nlm. nih.gov/geo/) with accession number GSE24150.
Expression of chaperone genes observed in bAP15-treated cells (Table 1) is indicative of induction of a proteotoxic response.

C=CC(=O)N1C/C(=C\c2ccc([N+](=O)[O-])cc2)C(=O)/C(=C/c2ccc([N+](=O)[O-])cc2)C1 [b-AP15, (3E,5E)-3,5-bis[(4-nitrophenyl)methylidene]-1-(prop-2-enoyl)piperidin-4-one]
IC50 [1]: 800 nM | difference in weight at the start and the endpoint between control and treated animals [2]: +2.1% | Expression value HSPA6 (MCF7 cells; probe set 117_at, MCF7 cells, 1 μM, 6 h): 24149 | Expression value DNAJB1 (MCF7 cells; probe set 200666_s_at, MCF7 cells, 1 μM, 6 h): 33900 | Fold change DNAJB1 (MCF7 cells; probe set 200666_s_at, b-AP15 vs vehicle): 6 | Expression value HSPA1A (MCF7 cells; probe set 200800_s_at, MCF7 cells, 1 μM, 6 h): 57478 | Fold change HSPA1A (MCF7 cells; probe set 200800_s_at, b-AP15 vs vehicle): 4 | Expression value DNAJA1 (MCF7 cells; probe set 200880_at, MCF7 cells, 1 μM, 6 h): 19970 | Fold change DNAJA1 (MCF7 cells; probe set 200880_at, b-AP15 vs vehicle): 4 | Expression value HSPA1B (MCF7 cells; probe set 202581_at, MCF7 cells, 1 μM, 6 h): 31068 | Fold change HSPA1B (MCF7 cells; probe set 202581_at, b-AP15 vs vehicle): 5 | Expression value DNAJB9 (MCF7 cells; probe set 202843_at, MCF7 cells, 1 μM, 6 h): 1879 | Fold change DNAJB9 (MCF7 cells; probe set 202843_at, b-AP15 vs vehicle): 4 | Expression value DNAJB4 (MCF7 cells; probe set 203810_at, MCF7 cells, 1 μM, 6 h): 1955 | Expression value DNAJB4 (MCF7 cells; probe set 203811_s_at, MCF7 cells, 1 μM, 6 h): 960 | Fold change DNAJB4 (MCF7 cells; probe set 203811_s_at, b-AP15 vs vehicle): 5 | Expression value HSPA4L (MCF7 cells; probe set 205543_at, MCF7 cells, 1 μM, 6 h): 5452 | Expression value HSPH1 (MCF7 cells; probe set 206976_s_at, MCF7 cells, 1 μM, 6 h): 40974 | Fold change HSPH1 (MCF7 cells; probe set 206976_s_at, b-AP15 vs vehicle): 5 | Expression value HSPA4 (MCF7 cells; probe set 211016_x_at, MCF7 cells, 1 μM, 6 h): 1803 | Fold change HSPA4 (MCF7 cells; probe set 211016_x_at, b-AP15 vs vehicle): 4 | Expression value DNAJA4 (MCF7 cells; probe set 225061_at, MCF7 cells, 1 μM, 6 h): 21103 | Fold change DNAJA4 (MCF7 cells; probe set 225061_at, b-AP15 vs vehicle): 30 | Expression value HSPD1 (MCF7 cells; probe set 241716_at, MCF7 cells, 1 μM, 6 h): 487 | Fold change HSPD1 (MCF7 cells; probe set 241716_at, b-AP15 vs vehicle): 6
